Where two headings read alike, the source gives them in different places.
Columns and labels:
Type in all cases: biochemical
[1] = target: T1, reuptake of dopamine (DA) in synaptosomes (Rattus norvegicus, UniProt P23977); assay: Inhibition of DA reuptake in synaptosomes
T1 construct: in synaptosomes as described in WO 97/16451 (NeuroSearch A/S); from tissue
Description: (§1) Compounds were tested for their ability to inhibit the reuptake of the monoamine neurotransmitters dopamine (DA) noradrenaline (NA) and serotonine (5-HT) in synaptosomes as described in WO 97/16451 (NeuroSearch A/S).
(§2) The test values are given as IC50 (the concentration (μM) of the test substance which inhibits the specific binding of ^3H-DA, ^3H-NA, or ^3H-5-HT by 50%).

[2] = target: T2, reuptake of serotonine (5-HT) in synaptosomes (Rattus norvegicus, UniProt P31652); assay: Inhibition of 5-HT reuptake in synaptosomes; settings: 3H-5-HT, read-out: 5-HT-uptake IC50
T2 construct: in synaptosomes as described in WO 97/16451 (NeuroSearch A/S); from tissue
Description: as §1, §2

[3] = target: T3, reuptake of noradrenaline (NA) in synaptosomes (Rattus norvegicus, UniProt Q63380); assay: Inhibition of NA reuptake in synaptosomes
T3 construct: in synaptosomes as described in WO 97/16451 (NeuroSearch A/S); from tissue
Description: as §1, §2

[4] = 3H-DA, synaptosomes, read-out: DA-uptake IC50
[5] = 3H-NA, synaptosomes, read-out: NA-uptake IC50

T2 sequence (P31652 whole entry): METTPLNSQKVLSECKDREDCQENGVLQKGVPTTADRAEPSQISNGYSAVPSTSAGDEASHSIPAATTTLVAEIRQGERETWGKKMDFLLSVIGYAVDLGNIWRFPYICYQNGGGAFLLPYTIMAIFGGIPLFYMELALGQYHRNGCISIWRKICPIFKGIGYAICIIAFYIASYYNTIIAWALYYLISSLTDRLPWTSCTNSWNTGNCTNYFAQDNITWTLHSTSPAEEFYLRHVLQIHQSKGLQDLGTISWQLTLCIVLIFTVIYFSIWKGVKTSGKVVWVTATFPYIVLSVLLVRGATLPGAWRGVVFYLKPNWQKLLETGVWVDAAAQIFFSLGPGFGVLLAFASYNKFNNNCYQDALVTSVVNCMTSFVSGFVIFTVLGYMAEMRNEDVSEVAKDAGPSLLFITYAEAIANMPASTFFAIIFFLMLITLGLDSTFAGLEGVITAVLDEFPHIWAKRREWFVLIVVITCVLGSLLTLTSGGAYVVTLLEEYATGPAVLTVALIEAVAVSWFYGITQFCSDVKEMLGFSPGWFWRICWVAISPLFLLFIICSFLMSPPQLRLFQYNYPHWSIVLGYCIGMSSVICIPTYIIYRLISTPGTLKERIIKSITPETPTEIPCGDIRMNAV
T1 sequence (P23977 whole entry): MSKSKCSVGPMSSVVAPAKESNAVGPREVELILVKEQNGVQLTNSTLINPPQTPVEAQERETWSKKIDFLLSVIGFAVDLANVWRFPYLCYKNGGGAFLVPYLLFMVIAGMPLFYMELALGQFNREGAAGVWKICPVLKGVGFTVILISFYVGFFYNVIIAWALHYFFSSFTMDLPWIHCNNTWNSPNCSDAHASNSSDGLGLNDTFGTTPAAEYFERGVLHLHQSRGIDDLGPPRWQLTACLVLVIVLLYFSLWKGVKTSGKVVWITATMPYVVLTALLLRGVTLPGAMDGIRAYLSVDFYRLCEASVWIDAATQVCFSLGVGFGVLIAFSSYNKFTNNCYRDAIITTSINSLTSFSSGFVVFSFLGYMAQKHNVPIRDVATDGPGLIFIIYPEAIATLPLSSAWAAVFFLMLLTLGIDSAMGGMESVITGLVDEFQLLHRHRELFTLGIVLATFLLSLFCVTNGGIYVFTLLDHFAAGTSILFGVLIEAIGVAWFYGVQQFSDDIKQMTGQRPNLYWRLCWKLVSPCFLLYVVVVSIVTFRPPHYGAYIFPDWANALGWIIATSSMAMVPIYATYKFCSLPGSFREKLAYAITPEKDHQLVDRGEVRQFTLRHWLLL
T3 sequence (Q63380 1-617): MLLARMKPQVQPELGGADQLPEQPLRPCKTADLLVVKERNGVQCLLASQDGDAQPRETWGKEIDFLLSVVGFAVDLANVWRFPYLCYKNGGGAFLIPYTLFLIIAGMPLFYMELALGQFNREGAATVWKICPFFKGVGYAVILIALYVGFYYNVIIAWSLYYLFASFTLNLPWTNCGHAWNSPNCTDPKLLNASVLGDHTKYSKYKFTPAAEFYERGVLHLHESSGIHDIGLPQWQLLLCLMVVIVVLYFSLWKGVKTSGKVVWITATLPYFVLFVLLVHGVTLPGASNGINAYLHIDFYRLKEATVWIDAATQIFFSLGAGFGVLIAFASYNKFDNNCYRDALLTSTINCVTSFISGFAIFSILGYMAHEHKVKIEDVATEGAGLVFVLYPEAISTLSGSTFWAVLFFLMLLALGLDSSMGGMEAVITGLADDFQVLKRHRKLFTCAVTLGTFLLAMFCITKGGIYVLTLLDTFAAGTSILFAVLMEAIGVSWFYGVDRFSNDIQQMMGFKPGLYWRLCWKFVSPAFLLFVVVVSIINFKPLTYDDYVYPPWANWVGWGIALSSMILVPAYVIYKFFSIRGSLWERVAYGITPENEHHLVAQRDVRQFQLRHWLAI

Row | Compound | IC50 [2] [nM] | IC50 [1, 4] [nM] | IC50 [3, 5] [nM] | IC50 [1] [nM] | IC50 [3] [nM]
1 | CCCN(C(=O)CCC1CCN(C)CC1)c1ccc(Cl)c(Cl)c1 [N-(3,4-Dichloro-phenyl)-3-(1-methyl-piperidin-4-yl)-N-propyl-propionamide] | 820 |  |  | 10 | 1
2 | CCCN(C(=O)CCC1CCNCC1)c1ccc(Cl)c(Cl)c1 [N-(3,4-Dichloro-phenyl)-3-piperidin-4-yl-N-propyl-propionamide] | 1400 | 9.8 | 1.9 |  | 
3 | CCN(C(=O)CCC1CCNCC1)c1ccc(Cl)c(Cl)c1 [N-(3,4-Dichloro-phenyl)-N-ethyl-3-piperidin-4-yl-propionamide] | 2100 | 11 | 11 |  | 
4 | CN(C(=O)CCC1CCNCC1)c1ccc(Cl)c(Cl)c1 [N-(3,4-Dichloro-phenyl)-N-methyl-3-piperidin-4-yl-propionamide] | > 1000 | 220 | 770 |  | 

Second part, led by results:

Row | IC50 [2] [nM] | IC50 [1, 4] [nM] | IC50 [3, 5] [nM] | Compound | IC50 [1] [nM] | IC50 [3] [nM]
5 | > 1000 | 6.3 | 6.5 | CCN(C(=O)CCC1CCN(C)CC1)c1ccc(Cl)c(Cl)c1 [N-(3,4-Dichloro-phenyl)-N-ethyl-3-(1-methyl-piperidin-4-yl)-propionamide] |  | 
6 | > 1000 | 330 | 87 | CN1CCC(CCC(=O)N(C)c2ccc(Cl)c(Cl)c2)CC1 [N-(3,4-Dichloro-phenyl)-N-methyl-3-(1-methyl-piperidin-4-yl)-propionamide] |  | 
7 | > 1000 | 6.8 | 1.3 | CCN(C(=O)CCC1CCN(C)CC1)c1ccc(Br)c(Cl)c1 [N-(4-Bromo-3-chloro-phenyl)-N-ethyl-3-(1-methyl-piperidin-4-yl)-propionamide] |  | 
8 | > 1000 | 3.1 | 2.6 | CCN(C(=O)CCC1CCNCC1)c1ccc(Br)c(Cl)c1 [N-(4-Bromo-3-chloro-phenyl)-N-ethyl-3-piperidin-4-yl-propionamide] |  | 
